Test results published in patent US20240382475A1, “Quinazoline Derivative, Or Preparation Method Therefor And Use Thereof” (Zhejiang Hisun Pharmaceutical Co., Ltd., priority 2021, published 2024).

System: p-ERK1/2 in DLD-1 cells
Test: Inhibition of p-ERK1/2 in DLD-1 cells (Cisbio Advanced phospho-ERK1/2 kit)
Type: cell-based
Conditions: Homo sapiens; DLD-1 cells (KRAS G13D mutation), hEGF 5 nM stimulation; read-out: IC50 (nM) Inhibition on p-ERK½ in DLD-1 cells
Text: The following method was used to determine the inhibition activities of the compounds of the present invention on p-ERK1/2 in DLD-1 cells. The Advanced phospho-ERK1/2 (Thr202/tyr2O4) kit (Art. No. 64AERPEH) from Cisbio was used in this method. Please refer to the kit instruction for detailed experimental operations. DLD-1 cells (containing KRAS G13D mutation) were purchased from the Cell Resource Center of Shanghai Institutes for Biological Sciences, Chinese Academy of Sciences.
The experimental process can be briefly described as follows: DLD-1 cells were cultured in RPMI 1640 complete medium containing 10% fetal bovine serum, 100 U penicillin, 100 μg/mL streptomycin and 1 mM Sodium Pyruvate. DLD-1 cells were plated in a 96-well plate at 30,000 cells per well, after cultured overnight in 5% CO2 incubator at 37° C. with complete culture medium. The test compounds were dissolved in DMSO to prepare storage solutions of 10 mM, and then diluted with RPMI 1640 basic mediums. 90 μL of RPMI 1640 basic mediums containing the test compounds at the corresponding concentration were added to each well. The final concentrations of the test compounds in the reaction system were 10,000 nM to 0.15 nM, and were placed in a cell culture incubator for 3 hours and 40 minutes. Subsequently, 10 μL of hEGF (purchased from Roche, Art. No. 11376454001) prepared with RPMI 1640 basic medium was added to a final concentration of 5 nM, and placed in the incubator for culturing for 20 minutes. The cell supernatant was discarded, and the cells were washed with PBS on ice-bath. Then, 45 μl of 1× cell phospho/total protein lysis buffer (component of Advanced phospho-ERK1/2 kit) was added to each well for lysis. The 96-well plate was placed on ice for 0.5 hours to lyse, and then the lysate was detected according to the instruction of the Advanced phospho-ERK1/2 (Thr202/tyr2O4) kit. Finally, the microplate reader was used in […] mode to measure the fluorescence intensity of each well emitting wavelengths of 620 nm and […] under the excitation wavelength of 304 nm, and the fluorescence intensity ratio 665/620 in each well was calculated. By comparing with the fluorescence intensity ratio of a control group (0.1% DMSO), the percentage inhibition rates of the test compounds at each concentration were calculated, and the IC50 values of the compounds were obtained by performing nonlinear regression analysis with logarithmic values of the compound concentration-inhibition rate by GraphPad Prism 5 software, which can be seen in Table 3.

COc1cc2nc(C)nc(N[C@H](C)c3cccc(C#N)c3C)c2cc1N1CCOCC1 [Compound 1, (R)-3-(1-((7-methoxy-2-methyl-6-morpholinoquinazolin-4-yl)amino)ethyl)-2-methylbenzonitrile]
IC50: 48.7 nM

COc1cc2nc(C)nc(N[C@H](C)c3cccc(C#N)c3C)c2cc1N1CCN(C(C)=O)CC1 [Compound 2, (R)-3-(1-((6-(4-acetylpiperazin-1-yl)-7-methoxy-2-methylquinazolin-4-yl)amino)ethyl)-2-methylbenzonitrile]
IC50: 65.4 nM

COc1cc2nc(C)nc(N[C@H](C)c3cccc(C#N)c3C)c2cc1N1CCC2(CC1)COC2 [Compound 5, (R)-3-(1-((7-methoxy-2-methyl-6-(2-oxa-7-azaspiro[3.5]nonan-7-yl)quinazolin-4-yl)amino)ethyl)-2-methylbenzonitrile]
IC50: 66.1 nM

COc1cc2nc(C)nc(N[C@H](C)c3cccc(C#N)c3C)c2cc1N1CCC2(CCN(C)C2=O)CC1 [Compound 7, (R)-3-(1-((7-methoxy-2-methyl-6-(2-methyl-1-oxo-2,8-diazaspiro[4.5]decan-8-yl)quinazolin-4-yl)amino)ethyl)-2-methylbenzonitrile]
IC50: 31.1 nM

COc1cc2nc(C)nc(N[C@H](C)c3cccc(C#N)c3C)c2cc1N1CCC(C#N)CC1 [Compound 8, (R)-1-(4-((1-(3-cyano-2-methylphenyl)ethyl)amino)-7-methoxy-2-methylquinazolin-6-yl)piperidine-4-carbonitrile]
IC50: 38.2 nM

COc1cc2nc(C)nc(N[C@H](C)c3cccc(C#N)c3C)c2cc1N1CCC(C)(O)CC1 [Compound 11, (R)-3-(1-((6-(4-hydroxy-4-methylpiperidin-1-yl)-7-methoxy-2-methylquinazolin-4-yl)amino)ethyl)-2-methylbenzonitrile]
IC50: 29.7 nM

COc1cc2nc(C)nc(N[C@H](C)c3cccc(C#N)c3C)c2cc1N1CCC2(CC1)CN(C(C)=O)C2 [Compound 19, (R)-3-(1-((6-(2-acetyl-2,7-diazaspiro[3.5]nonan-7-yl)-7-methoxy-2-methylquinazolin-4-yl)amino)ethyl)-2-methylbenzonitrile]
IC50: 46.3 nM
